Assay results: patent publication US20260226069A1, “GCN2 AND PERK KINASE MODULATORS AND METHODS OF USE THEREOF” (Deciphera Pharmaceuticals, LLC, priority 2023, published 2026)

Assays:
[1] = test system: ATF4 in Thapsigargin stimulated CCRF-CEM cells; assay: CCRF-CEM TG ATF4 ELISA, phenotypic assay for cellular inhibition of PERK preactivated by thapsigargin; type: cell-based; details: Homo sapiens, 3 h, compound three hours then 1 μM thapsigargin for an additional hour
Experimental: CCRF-CEM TG ATF4 ELISA, a Phenotypic Assay for Cellular Inhibition of PERK Preactivated by Thapsigargin (TG)
CCRF-CEM leukemia cells (catalog #CCL-116) were obtained from the American Type Culture Collection (ATTC, Manassas, VA). Briefly, cells were grown in RPMI-1640 medium supplemented with 10% heat-inactivated fetal bovine serum (Invitrogen, Carlsbad, CA) and 1% Penicillin/Streptomycin/L-Glutamine at 37° C., 5% CO2, and 95% humidity. Cells were expanded until reaching one million cells per mL at which time they were subcultured or harvested for assay use. One million five hundred thousand cells per well in 1 mL complete growth medium were dispensed into 12-well plates and incubated overnight. A serial dilution of test compound was added and cells were incubated at 37° C., 5% CO2, and 95% for three hours, then 1 μM thapsigargin was added and cells were incubated for an additional hour at 37° C., 5% CO2, and 95%. Cells were lysed then ATF4 levels were measured using an ELISA assay (Proteintech, Rosemont, IL). Absorbance was measured at 450 nm and 544 nM using a Synergy2 or equivalent reader (Biotek, Winooski VT). Data was analyzed using PRISM software (Graphpad, San Diego, CA) to calculate IC50 values.

[2] = target: T1, GCN2 kinase (Homo sapiens, UniProt Q9P2K8); assay: Biochemical assay for GCN2 (TR-FRET kinase activity assay); details: 2 nM GCN2, 1 mM ATP, 3-hour incubation
T1 construct: G556E with a; purchased Carna Biosciences
Experimental: Biochemical assay for GCN2
Activity of GCN2 kinase was determined using a TR-FRET kinase activity assay (e.g., Analytical Biochemistry, 2006, 356, 108-116). Assays were conducted in 384-well plates (13 μL assay volume) using 2 nM GCN2 (Carna Biosciences), 130 nM GFP-EIf2α (Invitrogen), 0.2 mg/mL E. coli tRNA (sigma) and 1 mM ATP in kinase buffer (Invitrogen). Inhibition of GCN2 was measured by adding serial diluted test compound (final assay concentration of 0.5% DMSO) followed by a 3-hour incubation. Tb-peIF2α (pSer52) antibody (Invitrogen) (2 nM final assay concentration) in kinase buffer containing EDTA (final assay concentration of 20 mM) was added. After a 60 min incubation at room temperature, TR-FRET was monitored using an excitation wavelength of 340 nm and emission wavelengths of 490 nm and 520 nm. The emission ratio (520/490) at each compound concentration of was converted to percent inhibition using controls (i.e., reaction with no test compound and reaction with a known inhibitor) and IC50 values were calculated by fitting a four-parameter sigmoidal curve to the data using Prism (GraphPad software).

[3] = test system: ASNase treated CCRF-CEM cells; assay: CCRF-CEM ASNase cell proliferation assay, phenotypic assay for cellular inhibition of GCN2; type: cell-based; details: Homo sapiens, 1 mU/mL ASNase, 72 h, resazurin
Experimental: CCRF-CEM ASNase Cell Proliferation Assay, a Phenotypic Assay for Cellular Inhibition of GCN2.
CCRF-CEM leukemia cells (catalog #CCL-116) were obtained from the American Type Culture Collect (ATTC, Manassas, VA). Cells were grown in RPMI-1640 medium supplemented with 10% heat-inactivated fetal bovine serum (Invitrogen, Carlsbad, CA) and 1% Penicillin/Streptomycin/L-Glutamine at 37° C., 5% CO2, and 95% humidity. Cells were expanded until reaching one million cells per mL at which time they are subcultured or harvested for assay use. Ten thousand cells per well in 200 μL RPMI-1640 supplemented with 10% heat-inactivated fetal bovine serum and 1% Penicillin/Streptomycin were dispensed into a 96-well black clear bottom plate. A serial dilution of test compound and 1 mU/mL ASNase was added in triplicate and plates were incubated for 72 h at 37° C., 5% CO2, and 95% humidity. At the end of the incubation, 40 μL of a […] solution of resazurin (Sigma, St. Louis, MO) in PBS was added to each well of the plate and plates were incubated for an additional 6 h at 37° C., 5% CO2, and 95% humidity. Plates were read on a Synergy2 or equivalent reader (Biotek, Winooski VT) using an excitation of 540 nm and an emission of 600 nm. Data was analyzed using GraphPad Prism software (GraphPad, San Diego, CA) to calculate IC50 values.

[4] = target: T2, PERK kinase (Homo sapiens, UniProt Q9NZJ5, A704S); assay: Biochemical assay for PERK (coupled pyruvate kinase/lactate dehydrogenase assay); details: 10 nM PERK, 1 mM ATP, reaction rate 2-3 h time frame, 30° C.
T2 construct: GST (with thrombin site LVPRGS); purchased Beryllium
Experimental: Biochemical Assay for PERK
Activity of PERK kinase was determined spectroscopically using a coupled pyruvate kinase/lactate dehydrogenase assay that continuously monitors the ATP hydrolysis-dependent oxidation of NADH (Science, 2000, 289, 1938-1942). Assays were conducted in 384-well plates (100 μL final volume) using 10 nM PERK (from Beryllium), 0.25 mg/mL Myelin Basic Protein substrate, 1.5 units pyruvate kinase, 2.1 units lactate dehydrogenase, 1 mM phosphoenol pyruvate, 0.28 mM NADH and 1 mM ATP in assay buffer (100 mM Tris, pH 7.5, 15 mM MgCl2, 0.5 mM DTT, 0.004% (w/v) BSA, and 0.004% Triton X-100). Inhibition of PERK was measured by adding serial diluted test compound (final assay concentration of 1% DMSO). A decrease in absorption at 340 nm was monitored continuously for 6 hours at 30° C. on a multi-mode microplate reader (BioTek). The reaction rate was calculated using the 2-3 h time frame. The reaction rate at each concentration of compound was converted to percent inhibition using controls (i.e., reaction with no test compound and reaction with a known inhibitor) and IC50 values were calculated using software routines in Prism (GraphPad software).

[5] = test system: ATF4 in H929 Multiple Myeloma cells; assay: H929 ATF4 ELISA assay; type: cell-based; details: four hours, fold stimulation of cellular ATF4 relative to vehicle treated control
Experimental: H929 multiple myeloma cells (catalog #CRL-9068) were obtained from the American Type Culture Collection (ATTC, Manassas, VA). Briefly, cells were grown in RPMI-1640 medium supplemented with 20% heat-inactivated fetal bovine serum (catalog #A3840002, ThermoFisher Scientific, Waltham, MA), 1% Penicillin/Streptomycin/L-Glutamine (catalog #10378016, ThermoFisher Scientific, Waltham, MA), and 0.05 mM 2-mercaptoethanol (catalog #21985-023, ThermoFisher Scientific, Waltham, MA) at 37° C., 5% CO2, and 95% humidity. Cells were expanded until reaching one million five hundred thousand cells per mL at which time they were sub-cultured or harvested for assay use. One million five hundred thousand cells per well in 1 mL complete growth medium were dispensed into 12-well plates and incubated overnight. A serial dilution of test compound was added, and cells were incubated at 37° C., 5% CO2, and 95% for four hours. Cells were lysed then ATF4 levels were measured using an ELISA assay (Proteintech, Rosemont, IL). Absorbance is measured at 450 nm and 544 nM using a Synergy2 or equivalent reader (Biotek, Winooski VT). Data were analyzed using PRISM software (Graphpad, San Diego, CA) to calculate fold stimulation of cellular ATF4 relative to vehicle treated control.

T2 sequence (Q9NZJ5 with tags, fused parts or gaps A704S): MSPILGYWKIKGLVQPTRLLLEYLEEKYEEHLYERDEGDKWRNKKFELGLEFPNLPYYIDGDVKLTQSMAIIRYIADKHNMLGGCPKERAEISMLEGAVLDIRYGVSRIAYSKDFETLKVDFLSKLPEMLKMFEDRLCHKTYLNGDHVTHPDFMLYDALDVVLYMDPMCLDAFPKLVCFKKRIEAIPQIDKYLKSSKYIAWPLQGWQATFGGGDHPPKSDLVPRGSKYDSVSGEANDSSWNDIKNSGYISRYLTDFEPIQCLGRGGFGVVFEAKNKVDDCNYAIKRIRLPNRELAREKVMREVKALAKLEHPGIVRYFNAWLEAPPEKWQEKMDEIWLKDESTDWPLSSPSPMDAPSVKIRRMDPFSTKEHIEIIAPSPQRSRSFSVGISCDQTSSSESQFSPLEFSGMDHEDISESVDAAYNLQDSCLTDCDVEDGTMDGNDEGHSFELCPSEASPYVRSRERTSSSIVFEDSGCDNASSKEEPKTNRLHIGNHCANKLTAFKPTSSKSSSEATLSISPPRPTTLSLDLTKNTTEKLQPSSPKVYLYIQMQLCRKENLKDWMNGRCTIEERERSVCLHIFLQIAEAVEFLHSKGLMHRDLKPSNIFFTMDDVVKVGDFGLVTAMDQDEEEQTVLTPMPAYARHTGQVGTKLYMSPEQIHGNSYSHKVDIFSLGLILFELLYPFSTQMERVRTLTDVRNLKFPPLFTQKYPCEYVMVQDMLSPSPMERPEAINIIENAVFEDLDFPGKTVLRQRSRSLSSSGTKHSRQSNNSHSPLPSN

Structure (SMILES)	IC50 [1]	IC50 [2]	IC50 [3]	IC50 [4]	H929 NS ATF4 ELISA [5]
CC(=O)OCc1cc(Cl)cc(S(=O)(=O)Nc2cccc(-c3nc(C)n4ccnc(N)c34)c2F)c1Cl [Example 1, 3-(N-(3-(8-amino-3-methylimidazo[1,5-a]pyrazin-1-yl)-2-fluorophenyl)sulfamoyl)-2,5-dichlorobenzyl acetate]	500 to 1000 nM	1000 to 10000 nM	500 to 1000 nM	100 to 500 nM	++++ (an ATF4 stim greater than 20-fold)
Cc1nc(-c2cccc(NS(=O)(=O)c3cc(Cl)cc(CO)c3Cl)c2F)c2c(N)nccn12 [Example 2, N-(3-(8-amino-3-methylimidazo[1,5-a]pyrazin-1-yl)-2-fluorophenyl)-2,5-dichloro-3-(hydroxymethyl)benzenesulfonamide]	100 to 500 nM	100 to 500 nM	100 to 500 nM	≤ 100 nM	+++ (an ATF4 stim greater than 10-fold and less than or equal to 20-fold)
Nc1ncnn2ccc(-c3cccc(NS(=O)(=O)c4cc(Cl)cc(CO)c4Cl)c3F)c12 [Example 3]	100 to 500 nM	100 to 500 nM	100 to 500 nM	≤ 100 nM	++ (an ATF4 stim greater than 5-fold and less than or equal to 10-fold)
Cc1nc(-c2cc(NS(=O)(=O)c3cc(Cl)cc(CO)c3Cl)cc(F)c2F)c2c(N)nccn12 [Example 4]	1000 to 10000 nM	≤ 100 nM	1000 to 10000 nM	≤ 100 nM	+ (an ATF4 stim less than or equal to 5-fold)
CC(C)(C)c1nc(-c2cccc(NS(=O)(=O)c3cc(Cl)cc(CO)c3Cl)c2F)c2c(N)nccn12 [Example 9]	100 to 500 nM	100 to 500 nM	100 to 500 nM	≤ 100 nM	+++ (an ATF4 stim greater than 10-fold and less than or equal to 20-fold)
Nc1nccn2c(-c3ccccc3)nc(-c3cccc(NS(=O)(=O)c4cc(Cl)cc(CO)c4Cl)c3F)c12 [Example 12]	500 to 1000 nM	≤ 100 nM	100 to 500 nM	≤ 100 nM	++++ (an ATF4 stim greater than 20-fold)
Cc1cc(-c2cccc(NS(=O)(=O)c3cc(Cl)cc(CO)c3Cl)c2F)c2c(N)ncnn12 [Example 13]	100 to 500 nM	100 to 500 nM	100 to 500 nM	≤ 100 nM	+++ (an ATF4 stim greater than 10-fold and less than or equal to 20-fold)
Nc1nccn2c(C3CC3)nc(-c3cccc(NS(=O)(=O)c4cc(Cl)cc(CO)c4Cl)c3F)c12 [Example 14]	100 to 500 nM	≤ 100 nM	≤ 100 nM	≤ 100 nM	++ (an ATF4 stim greater than 5-fold and less than or equal to 10-fold)
CC(C)c1nc(-c2cccc(NS(=O)(=O)c3cc(Cl)cc(CO)c3Cl)c2F)c2c(N)nccn12 [Example 16]	100 to 500 nM	≤ 100 nM	≤ 100 nM	≤ 100 nM	+++ (an ATF4 stim greater than 10-fold and less than or equal to 20-fold)
Nc1nccn2c(C3CCC3)nc(-c3cccc(NS(=O)(=O)c4cc(Cl)cc(CO)c4Cl)c3F)c12 [Example 17]	100 to 500 nM	≤ 100 nM	100 to 500 nM	≤ 100 nM	+++ (an ATF4 stim greater than 10-fold and less than or equal to 20-fold)
NC(=O)c1cc(-c2cccc(NS(=O)(=O)c3cc(Cl)cc(CO)c3Cl)c2F)c2c(N)ncnn12 [Example 18]	500 to 1000 nM	≤ 100 nM	100 to 500 nM	≤ 100 nM	++ (an ATF4 stim greater than 5-fold and less than or equal to 10-fold)
Nc1nccn2c(-c3cn[nH]c3)nc(-c3cccc(NS(=O)(=O)c4cc(Cl)cc(CO)c4Cl)c3F)c12 [Example 19]	500 to 1000 nM	≤ 100 nM	100 to 500 nM	≤ 100 nM	++ (an ATF4 stim greater than 5-fold and less than or equal to 10-fold)

Continued, in another order:

IC50 [1]	IC50 [2]	IC50 [3]	IC50 [4]	Structure (SMILES)	H929 NS ATF4 ELISA [5]
≤ 100 nM	≤ 100 nM	≤ 100 nM	≤ 100 nM	Cn1cc(-c2nc(-c3cccc(NS(=O)(=O)c4cc(Cl)cc(CO)c4Cl)c3F)c3c(N)nccn23)cn1 [Example 20]	++ (an ATF4 stim greater than 5-fold and less than or equal to 10-fold)
100 to 500 nM	≤ 100 nM	100 to 500 nM	≤ 100 nM	CSc1nc(-c2cccc(NS(=O)(=O)c3cc(Cl)cc(CO)c3Cl)c2F)c2c(N)nccn12 [Example 21]	+++ (an ATF4 stim greater than 10-fold and less than or equal to 20-fold)
100 to 500 nM	≤ 100 nM	100 to 500 nM	≤ 100 nM	CNC(=O)c1nc(-c2cccc(NS(=O)(=O)c3cc(Cl)cc(CO)c3Cl)c2F)c2c(N)nccn12 [Example 22]	++++ (an ATF4 stim greater than 20-fold)
100 to 500 nM	≤ 100 nM	100 to 500 nM	≤ 100 nM	CNc1nc(-c2cccc(NS(=O)(=O)c3cc(Cl)cc(CO)c3Cl)c2F)c2c(N)nccn12 [Example 26]	++ (an ATF4 stim greater than 5-fold and less than or equal to 10-fold)
100 to 500 nM	1000 to 10000 nM	1000 to 10000 nM	≤ 100 nM	Cn1cc(-c2cccc(NS(=O)(=O)c3cc(F)c(Br)cc3F)c2F)c2c(N)ncnc21 [Example 38]	+ (an ATF4 stim less than or equal to 5-fold)
